In patent US20090047742A1 (priority 2005, published 2009):

Experiments:
T-Rex-293 cells [1] = experiment: 35S-methionine metabolic labeling (protein synthesis); type: cell-based, human
Description: T-Rex-293 (mazF/pcDNA3) and T-Rex-293 (mazF/mazE) cells were incubated for 0, 24 and 48 hr in tetracycline-containing complete DMEM followed by incubation for 1 hr in fresh methionine-free DMEM containing 10 μCi/ml ^35S-methionine. The cells then were washed with PBS twice and lysed in 2× Laemmli buffer. The cell lysate was subjected to SDS-PAGE followed by autoradiography and coomassie blue stain. Signal intensity was measured by Phosphoimager STORM 860 (Molecular Dynamics, Sunnyvale, Calif.).

T-Rex-293 cells [2] = experiment: trypan blue exclusion viability; type: cell-based, human; settings: T-Rex-293 (mazF/pcDNA3), MazF expression induced
Description: The viability of T-Rex-293 cells was determined by trypan blue exclusion as previously described (Degenhardt, K., et al., J. Biol. Chem. 277: 14127-14134 (2002)). T-Rex-293 (mazF/pcDNA3) and T-Rex-293 (mazF/mazE) cells were cultured for 24 hr before tetracycline treatment and then incubated for 0, 24, 48 and 72 hr at 37° C. in the presence or absence of 10 μg/ml tetracycline. After treatment, cells were collected by centrifugation of the supernatant plus adherent cells, which were harvested by trypsinization. Cells were resuspended in 500 μl of fresh medium containing 0.1% trypan blue solution (Sigma, St. Louis, Mo.) and then counted on a hemocytometer to assess the number of dead blue cells and the total number of cells counted. As a control for apoptotic cell death, T-Rex-293 (mazF/mazE) cells were treated with 1 μM staurosporine (Sigma, St. Louis, Mo.) for same time periods concurrently with tetracycline treatment.

T-Rex-293 cells [3] = experiment: FACS analysis of propidium iodide labeling (sub-G1 peak); type: cell-based, human; settings: T-Rex-293 (mazF/pcDNA3), 72 hours of Tet induction
Description: T-Rex-293 (mazF/pcDNA3) cells and T-Rex-293 (mazF/mazE) cells treated with tetracycline for 0, 24, 48 and 72 hr were harvested by trypsinization, pelleted by centrifugation and resuspended in PBS. The cells were fixed with ice-cold 70% ethanol for 30 min and stained with propidium iodide (10 μg/ml) and RNase A (100 μg/ml) overnight. The cells were analyzed on a Becton Dickinson FACSCalibur system (San Jose, Calif.).

BCL-2 family proteins = experiment: Western blot of BCL-2 family proteins in T-Rex-293 lysates; type: cell-based, human
Description: Western blot analysis and immunofluorescence were performed as previously described (Perez, D., and White, E. J. Cell Biol. 141: 1255-1266 (1998); Perez, D., and White, E. Mol. Cell 6: 53-63 (2000)). The term “Western blot” refers to a method for identifying proteins in a complex mixture; proteins are separated electrophoretically in a gel medium; transferred from the gel to a protein binding sheet or membrane; and the sheet or membrane containing the separated proteins exposed to specific antibodies which bind to, locate, and enable visualization of protein(s) of interest. T-Rex-293 (mazF/pcDNA3) and T-Rex-293 (mazF/mazE) cells were harvested at 0, 24, 48 and 72 hr post-treatment with tetracycline or staurosporine by scraping and centrifugation. All cell pellets were lysed in 2× Laemmli buffer. Cell lysates were subjected to electrophoresis on a 15% SDS-PAGE gel and then transferred onto an Immobilon-P membrane (Millipore, Bedford, Mass.). […]

iBMK cells = experiment: β-galactosidase assay, viability of iBMK cells co-expressing LacZ; type: cell-based, mouse
Description: β-galactosidase assays to determine the viability of iBMK cells co-expressing LacZ and MazF were performed as previously described (Han, J., Sabbatini, P., and White, E. Mol. Cell. Biol. 16: 5857-5864 (1996)). W2, D3, X2 and K1 co-transfected with pcDNA6/His/LacZ and pcDNA4/TO/mazF or pcDNA3 for 48 hr were fixed in 1% glutaraldehyde and then stained with 0.2% X-gal solution at 37° C. for 24 hr. β-Galactosidase positive blue cells and the total number of cells (approximately 200 cells) were independently counted on a 6-cm diameter dish.

Substance: MazF: E. coli toxin; sequence specific endoribonuclease (mRNA interferase) cleaving single-stranded RNAs at ACA sequences; expressed from plasmid pcDNA4/TO/mazF
- total protein levels (Coomassie blue) (T-Rex-293 cells [1]; MazF expressing T-Rex-293 cells, over the 48 hour induction period): remain constant
- protein synthesis (35S-methionine incorporation) (T-Rex-293 cells [1]; T-Rex-293 (mazF/pcDNA3), 24 hours post induction of MazF): strikingly inhibited
- cell viability (trypan blue exclusion) (T-Rex-293 cells [2]): dropped strikingly
- sub-G1 peak (T-Rex-293 cells [3]): 65.9%
- levels of BCL-2 family proteins (Western blot) (BCL-2 family proteins; T-Rex-293, MazF induction 0-72 hours): remained unchanged
- truncated BID (tBID) (Western blot) (BCL-2 family proteins; T-Rex-293, during MazF-induced apoptosis): undetectable
- β-galactosidase expression (iBMK cells; D3 (bax−/− bak−/−) iBMK cells expressing MazF): little effect
- response to MazF (β-galactosidase assay) (iBMK cells; K1 (bak−/−) iBMK cells): preferentially resistant
- β-galactosidase positive cells (iBMK cells; W2 iBMK cells transiently co-expressing LacZ and MazF, 48 hours post-transfection): significant decrease
- number of β-galactosidase positive cells (iBMK cells; X2 (bax−/−) iBMK cells expressing MazF): significantly decreased
- response to MazF-induced cell death (β-galactosidase assay) (iBMK cells; nbk/bik−/− iBMK cells): preferentially resistant
- number of β-galactosidase positive cells (iBMK cells; puma−/−, bim−/−, noxa−/− iBMK cells transiently expressing MazF): significantly decreased
